# From patent US20260191968A1, “PROTAC DEGRADERS OF MLLT1 AND/OR MLLT3” (DARK BLUE THERAPEUTICS LTD, priority 2024, published 2026)
# How the values were obtained:
# Assay type in all cases: cell-based
# MV4-11 cells [1] = experiment: MV4-11 cellular proliferative assay, Assay Format B (CTG 2.0, 168 h); settings: Homo sapiens
# Outline: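 MV4-11 cells seeded overnight in IMDM + 10% FBS, then exposed to 10-point, 3-fold dilutions from 1 uM or 100 nM top concentration (0.3% DMSO final) for 168 h at 37 °C. CTG 2.0 luminescence read; % viability vs DMSO control fitted by four-parameter logistic regression.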
# MLLT1 [2] = molecular target: T1, MLLT1 (Homo sapiens, UniProt Q03111); experiment: MLLT1 DC50 and Dmax determination in MV4-11 cells (JESS), dose response, 4 h; settings: MLLT1 degradation; for Dmax: maximum % degradation observed
# T1 construct: host or cells: MV4-11
# T1 sequence (Q03111 1-559): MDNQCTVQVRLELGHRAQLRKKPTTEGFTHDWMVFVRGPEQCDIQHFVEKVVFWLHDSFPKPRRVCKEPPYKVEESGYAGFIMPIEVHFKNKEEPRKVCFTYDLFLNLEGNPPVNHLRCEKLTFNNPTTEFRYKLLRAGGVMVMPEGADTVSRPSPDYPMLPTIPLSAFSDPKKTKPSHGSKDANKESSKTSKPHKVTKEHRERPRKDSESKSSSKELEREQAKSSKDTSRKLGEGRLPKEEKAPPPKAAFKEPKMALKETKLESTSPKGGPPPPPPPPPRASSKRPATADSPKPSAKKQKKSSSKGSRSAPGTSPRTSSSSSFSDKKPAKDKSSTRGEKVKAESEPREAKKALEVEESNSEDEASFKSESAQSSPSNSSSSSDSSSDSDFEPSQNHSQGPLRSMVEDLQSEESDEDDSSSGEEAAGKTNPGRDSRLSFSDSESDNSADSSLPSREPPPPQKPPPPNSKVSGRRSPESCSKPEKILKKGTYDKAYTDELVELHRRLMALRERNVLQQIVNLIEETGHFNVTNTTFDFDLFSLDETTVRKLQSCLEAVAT
# Protocol: MLLT1 degradation efficacy of compounds was tested in an automated chemiluminescent detection system (JESS, Cat #004-650). MV4-11 (#CRL-9591, ATCC) were seeded at a density of 1.2 million cells/well in a non-treated 6-well cell culture plate in 2.4 mL of complete medium (IMDM+10% FBS+1X Penicillin-Streptomycin). 10 mM DMSO stocks were prepared, and cells were treated with eight concentrations of test compounds, starting from 100 nM, 5-fold dilution, at a final DMSO concentration of 0.1% and incubated for 4 h at 37° C., 5% CO2. Post incubation, cells were centrifuged, washed with HBSS and lysed in 60 μL of RIPA buffer supplemented with Protease inhibitors (sc-24948; Santa Cruz). Protein estimation was done using BCA protein assay kit (23228; Pierce). 4 μg protein lysate (4 μL of 1 μg/μL lysate) was loaded into each well of the JESS cartridge (SM-W004; Bio-techne) and the JESS run was performed using 1:900 dilution of anti-human MLLT1 antibody (ABE2596; Merck) and 1:1200 dilution of anti-human GAPDH antibody (2118; Cell signaling technology) with anti-rabbit secondary detection module (DM-001; Bio-Techne). Post run, data was analysed using “Compass for SW” software for chemiluminescent detection. Peak fit was done using “dropped lines” method. Peak area for MLLT1 and GAPDH was used for the calculation of MLLT1 degradation with respect to DMSO control. Data was shown as “% degradation”. % Degradation was plotted against the respective doses (test compound concentration) and dose-response curve (DRC) was generated using four-parameter logistic equation (non-linear regression). Following parameters for each DRC was captured: DC50 (concentration in nM at which degradation is 50%, interpolated from standard curve and transformed to linear scale), Dmax (maximum % degradation observed). DC50 and Dmax data are captured in Table 9 for Example 8 and Example 234, which is a comparative example.
# MLLT1 [3] = molecular target: T1, MLLT1; experiment: MLLT1 degradation assay in MV4-11 cells (JESS chemiluminescent detection), three concentrations, 24 h; settings: with respect to DMSO control
# Outline: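 MV4-11 cells treated 24 h at 37° C, 5% CO2 with 1000, 100 and 10 nM compound (0.1% DMSO final). MLLT1 quantified by automated capillary chemiluminescent immunodetection; band peak area expressed as % degradation relative to DMSO control.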
# MV4-11 cells [4] = experiment: MV4-11 cellular proliferative assay, Assay Format A (CellTiter-Glo, 120 hours); settings: Homo sapiens
# Protocol: An MV4-11 proliferation assay was used to test the ability of compounds to reduce cell viability. MV4-11 cells (ATCC #CRL9591) were grown in IMDM medium (11510596, Gibco) supplemented with 10% fetal bovine serum (F7524, Gibco) and 1% Penicillin/Streptomycin (15140-122, Gibco) at 37° C. with 5% CO2. Cells were seeded in 384-well Elplasia plates (4447, Corning) at a density of 50 cells/well and treated with vehicle (DMSO) or compounds (10 serial semi-log dilutions, 30 μM as top concentration).
# After 120 hours of treatment, cells were incubated for 10 min at RT with the CellTiter-Glo (CTG) reagent (G7571, Promega). Measurement of the luminescence signal was performed on a microplate reader (Ensight, PerkinElmer). CTG reagent measures the amount of ATP, which is directly proportional to the number of cells, to determine the number of viable cells in culture.
# The data were analysed as follows:
# where x is the measured raw signal value of a well, (cr) is the median of the measured signal values for the Central Reference (DMSO) wells on a plate, (sr) is the median of the measured signal values for the Scale Reference (reference compound) wells on a plate.
# where the experimental set-up assumes the Hill parameters in certain ranges: S0~Central Reference (CR) from normalization (=Bottom), Sinf~Scale Reference (SR) from normalization (=Top), nHill~1, AC50~within the measured concentration range.
# [5] = Assay Method B, read-out: MV4-11 Antiproliferation IC50
"IC50 (MV4-11 cells [1]; 168 h (7 days), CTG 2.0, read-out: IC50 (MV4-11 cellular proliferative assay, Assay format B)) [nM]",IC50 (MV4-11 cells [1]; [5]) [nM],DC50 (MLLT1 [2]) [nM],Dmax (MLLT1 [2]) [%],MLLT1% Degradation @ 0.01 μM (MLLT1 [3]),MLLT1% Degradation @ 0.1 μM (MLLT1 [3]),MLLT1% Degradation @ 1 μM (MLLT1 [3]),IC50 (MV4-11 cells [4]) [nM],SMILES
≤ 100,1.5,0.4,87,A (Category A: A ≥ 75% degradation),A (Category A: A ≥ 75% degradation),A (Category A: A ≥ 75% degradation),–,"CN1CCC[C@@H]1c1cc2cnc(NC(=O)c3ccc(CCCCC#Cc4cccc5c4CN(C4CCC(=O)NC4=O)C5=O)cc3)cc2[nH]1 (mixture of isomers) [Example 8, 4-(6-(2-(2,6-dioxopiperidin-3-yl)-1-oxoisoindolin-4-yl)hex-5-yn-1-yl)-N-(2-((R)-1-methylpyrrolidin-2-yl)-1H-pyrrolo[3,2-c]pyridin-6-yl)benzamide]"
–,> 1000,6.4,60,–,–,–,–,"O=C1CCC(N2Cc3c(C#CCCCCc4ccc(C(=O)Nc5cc6[nH]c(CN7CCCC7)cc6cn5)cc4)cccc3C2=O)C(=O)N1 (stereo not drawn) [Example 234, 4-(6-(2-(2,6-dioxopiperidin-3-yl)-1-oxoisoindolin-4-yl)hex-5-yn-1-yl)-N-(2-(pyrrolidin-1-ylmethyl)-1H-pyrrolo[3,2-c]pyridin-6-yl)benzamide]"
–,–,–,–,A (Category A: A ≥ 75% degradation),A (Category A: A ≥ 75% degradation),A (Category A: A ≥ 75% degradation),≤ 100,"CN1CCC[C@@H]1c1cc2cnc(NC(=O)c3ccc(-c4cnn(CCCC#Cc5ccc6c(c5)CN(C5CCC(=O)NC5=O)C6=O)c4)cc3)cc2[nH]1 (stereo partly drawn) [Example 22, 4-(1-(5-(2-(2,6-dioxopiperidin-3-yl)-1-oxoisoindolin-5-yl)pent-4-yn-1-yl)-1H-pyrazol-4-yl)-N-(2-((R)-1-methylpyrrolidin-2-yl)-1H-pyrrolo[3,2-c]pyridin-6-yl)benzamide]"
–,–,–,–,A (Category A: A ≥ 75% degradation),A (Category A: A ≥ 75% degradation),A (Category A: A ≥ 75% degradation),≤ 100,"C[C@@H](C#Cc1cccc2c1CN(C1CCC(=O)NC1=O)C2=O)Oc1ccc(C(=O)Nc2cc3[nH]c([C@H]4CCCN4C)cc3cn2)cc1 (stereo partly drawn) [Example 24, 4-(((2S)-4-(2-(2,6-dioxopiperidin-3-yl)-1-oxoisoindolin-4-yl)but-3-yn-2-yl)oxy)-N-(2-((R)-1-methylpyrrolidin-2-yl)-1H-pyrrolo[3,2-c]pyridin-6-yl)benzamide]"
